TGI data for 15 compounds are collected here from PubChem BioAssay (NCI).

Some test systems named below: EKVX NSCLC; NCI-H23 lung; NCI-H460 lung; SF-268 CNS; SK-MEL-5 melanoma; TK-10 renal; A498 renal; OVCAR-5 ovarian; SF-295 CNS; RXF 393 renal.
Holding throughout (assay): NCI anticancer screen, dose series, 48 h

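Step 1: Grow cells in 96-well plates. Step 2: Expose to compound for 48 hours at 5 concentrations. Step 3: Interpolate endpoints linearly; if unreached, use highest concentration. TGI: total growth inhibition.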 A value given as a limit tells only on which side of the number the result lay.

With `COc1ccccc1Nc1nc(NNC(=O)Cc2ccccc2)nc(NNC(=O)c2ccncc2)n1`, the TGI with EKVX NSCLC, in the assay with NCI-H23 lung, in the assay on NCI-H460 lung, in the assay with SF-268 CNS, in the assay on SK-MEL-5 melanoma and with TK-10 renal was greater than 10 µM each time.

For the compound `CSc1c(C#N)c2n(c3ccccc13)c1ccccc1[n+]2C`, the TGI was 60 µM in the assay with A498 renal; 56.9 µM in the assay with EKVX NSCLC; 70.7 µM in the assay on NCI-H23 lung; greater than 100 µM in the assay on NCI-H460 lung; greater than 100 µM in the assay with OVCAR-5 ovarian; greater than 100 µM in the assay with SF-268 CNS. The TGI in the assay with SF-295 CNS was greater than 100 µM; in the assay with SK-MEL-5 melanoma, 26.7 µM; in the assay with TK-10 renal, 93.6 µM.

As to `COc1cc2c(cc1OC)-c1c3c(cc4c1[C@@H](C2)N(C)CC4)OCO3`, the TGI in the assay with A498 renal amounted to 16.9 µM; in the assay with EKVX NSCLC, 37.3 µM; in the assay on NCI-H23 lung, 26.1 µM; in the assay on NCI-H460 lung it was 14.3 µM; in the assay with OVCAR-5 ovarian it was 37.3 µM; in the assay with RXF 393 renal it was 19.2 µM. Further, the figures for the TGI in the assay on SF-268 CNS, with SF-295 CNS and in the assay with SK-MEL-5 melanoma were 38.2 µM, 16.7 µM and 19.3 µM, respectively.

Consider `Cc1ccc(SC(=O)N2C(=S)NC(=NC3CCCCC3)C23CCCCC3)cc1`, for which the TGI in the assay with EKVX NSCLC, in the assay on NCI-H23 lung, in the assay with NCI-H460 lung, in the assay on OVCAR-5 ovarian, in the assay on RXF 393 renal and with SF-268 CNS was greater than 100 µM each time. Further, the TGI in the assay on SF-295 CNS, in the assay with SK-MEL-5 melanoma and in the assay with TK-10 renal was greater than 100 µM throughout.

As to `CN(C)CCNc1ncnc2nc(-c3ccc4ccccc4c3)[nH]c12`, the TGI in the assay with EKVX NSCLC, in the assay on NCI-H23 lung, in the assay with NCI-H460 lung, in the assay with OVCAR-5 ovarian, in the assay with RXF 393 renal and in the assay with SF-268 CNS was greater than 100 µM in each case. Also, the TGI with SF-295 CNS, in the assay with SK-MEL-5 melanoma and in the assay with TK-10 renal was greater than 100 µM each time.

`CN(Cc1cnc2nc(N)nc(N)c2n1)c1ccc(C(=O)NC(CCC(=O)NC(P(=O)(O)O)P(=O)(O)O)C(=O)O)cc1` (stereo not drawn): the TGI in the assay with EKVX NSCLC, with NCI-H23 lung, in the assay on NCI-H460 lung, with OVCAR-5 ovarian, in the assay with RXF 393 renal and in the assay on SF-268 CNS was greater than 100 µM throughout. For the same compound, the TGI in the assay with SF-295 CNS, in the assay on SK-MEL-5 melanoma and with TK-10 renal was greater than 100 µM throughout.

Take `CC(=O)N1CCN(C23OC4(N5CCN(C(C)=O)CC5)C5C6CC(C7C6C4C72)C53)CC1` (stereo not drawn): the TGI in the assay on EKVX NSCLC, in the assay on NCI-H23 lung, in the assay with NCI-H460 lung, in the assay on OVCAR-5 ovarian, with RXF 393 renal and with SF-268 CNS was greater than 100 µM in each case. Besides, the TGI in the assay on SF-295 CNS, in the assay with SK-MEL-5 melanoma and in the assay on TK-10 renal was greater than 100 µM each time.

In the case of `CCOC(=O)C(/C=N\C(=S)Nc1ccc(OCC)cc1)=C(/O)c1ccccc1`, the TGI in the assay with A498 renal is 88.4 µM; in the assay with EKVX NSCLC it was greater than 100 µM; in the assay with NCI-H23 lung, greater than 100 µM; in the assay on NCI-H460 lung it was greater than 100 µM; in the assay with OVCAR-5 ovarian, greater than 100 µM; in the assay on RXF 393 renal it was greater than 100 µM. Besides, the TGI in the assay on SF-268 CNS, with SF-295 CNS and in the assay on SK-MEL-5 melanoma was greater than 100 µM in each case.

Turning to `Nc1cc(N2CCCC2)nc(=O)n1Cc1ccccc1`, the TGI in the assay on EKVX NSCLC, with NCI-H23 lung, with NCI-H460 lung, in the assay with OVCAR-5 ovarian, in the assay with SF-268 CNS and in the assay on SF-295 CNS was greater than 100 µM in each case. The TGI with SK-MEL-5 melanoma and with TK-10 renal was greater than 100 µM in each case.

Turning to `CC1(Cl)CC2C(CC1Sc1nnnn1-c1ccccc1)C2(C)C` (stereo not drawn), the TGI in the assay on EKVX NSCLC, with NCI-H23 lung, with NCI-H460 lung, with OVCAR-5 ovarian, with RXF 393 renal and with SF-268 CNS was greater than 100 µM in each case. In addition, the TGI in the assay on SF-295 CNS, in the assay on SK-MEL-5 melanoma and with TK-10 renal was greater than 100 µM in each case.

With `O=C1C(Br)=C(c2ccccc2)S(=O)c2ccccc21` (stereo not drawn), the TGI turned out to be 33.9 µM with EKVX NSCLC; 39.7 µM with NCI-H23 lung; 40.6 µM in the assay with NCI-H460 lung; 41 µM with OVCAR-5 ovarian; 24.8 µM in the assay with RXF 393 renal; 36.5 µM with SF-268 CNS. Also, the TGI in the assay on SF-295 CNS was 34.6 µM; with SK-MEL-5 melanoma, 24.7 µM; in the assay on TK-10 renal, 32.2 µM.

Take `O=C(NCCCNCCNC(=O)c1cc(-c2ccccc2)nc2ccccc12)c1cc(-c2ccccc2)nc2ccccc12`: the TGI in the assay on A498 renal amounted to 4.76 µM; in the assay with EKVX NSCLC, 5.2 µM; in the assay with NCI-H460 lung it was 3.31 µM; in the assay with SF-295 CNS, 3.19 µM; in the assay on SK-MEL-5 melanoma, 3.03 µM; with TK-10 renal, 3.14 µM.

Take `COc1cc(S(=O)(=O)Nc2ccc(-c3csc(N4C(=O)CSC4c4ccccc4)n3)cc2)ccc1Cl` (stereo not drawn): the TGI with A498 renal is 3.61 µM; in the assay on EKVX NSCLC, greater than 100 µM; with NCI-H23 lung it was greater than 100 µM; with NCI-H460 lung it was greater than 100 µM; in the assay on OVCAR-5 ovarian, greater than 100 µM; with RXF 393 renal, 64.5 µM. Further, the TGI with SF-268 CNS, in the assay on SF-295 CNS and with SK-MEL-5 melanoma was greater than 100 µM in each case.

Regarding `Cc1ccc(N=Nc2c(C)c(C#N)c(=S)n(C3OC(CO)C(O)C(O)C3O)c2-c2ccccc2)cc1` (stereo not drawn), the TGI with A498 renal was 33.2 µM; with NCI-H23 lung it was 40.4 µM; with NCI-H460 lung it was greater than 100 µM; with OVCAR-5 ovarian, 55.9 µM; in the assay on RXF 393 renal it was 50.6 µM; in the assay with SF-268 CNS, 68 µM. Besides, the TGI stood at 69.5 µM with SF-295 CNS, 23.2 µM in the assay on SK-MEL-5 melanoma and 67.6 µM in the assay on TK-10 renal.

Turning to `O=c1oc2ccc(Cl)cc2cc1-c1cn2cc(Cl)ccc2n1`, the TGI with EKVX NSCLC, in the assay with NCI-H23 lung, in the assay with NCI-H460 lung, in the assay with OVCAR-5 ovarian, in the assay with RXF 393 renal and in the assay with SF-268 CNS was greater than 100 µM in each case. In addition, the TGI with SF-295 CNS, in the assay with SK-MEL-5 melanoma and in the assay on TK-10 renal was greater than 100 µM each time.
